SMILES | logP
O=C(O)CCn1ccc2ccccc21 | 2.2
COc1cccc(/C=C/C(=O)O)c1 | 2.37
O=C(O)c1ccc(O)c(O)c1 | 0.99
COc1cc(C(O)C(=O)O)ccc1O (centres undefined) | 0.84
O=C(O)C1CCCCC1 | 1.96
O=C(O)Cc1ccc(O)cc1 | 1.26
O=C(O)Cn1ccc2ccccc21 | 1.92
O=C(O)Cc1ccccc1O | 1.47
COc1cc(CC(=O)O)ccc1O | 1.18
O=C(O)Cn1ccc2cc(O)ccc21 | 1.17
COc1cccc(C(O)C(=O)O)c1 (centres undefined) | 1.33
CC(C)CCOC(=O)c1ccccc1 | 4.1
O=C(O)c1cc(O)c(O)c(O)c1 | 0.72
O=C(O)c1cc(O)cc(O)c1 | 0.94
O=C(O)Cc1ccc(O)c(O)c1 | 0.98
CCC(=O)c1ccccc1 | 2.3
O=C(O)Cc1cc(O)ccc1O | 0.86
O=C(O)c1cc2ccccc2cc1O | 3.05
CCCCOC(=O)c1ccccc1 | 3.68

Reference: the SangsterLogP compilation
